This note sets out measurements from US11578079B2, “SUMO inhibitor compounds and uses thereof” (CITY OF HOPE, priority 2018, dated 2023).

One test has as its system c-Myc. The test is described as follows: c-Myc activity (Table I, biological activities). More on the design: key: + (less active); ++ (active); +++ (most active).
The next test deals with T1, SUMO (Homo sapiens, UniProt Q9UBT2).
T1 sequence (Q9UBT2 1-640): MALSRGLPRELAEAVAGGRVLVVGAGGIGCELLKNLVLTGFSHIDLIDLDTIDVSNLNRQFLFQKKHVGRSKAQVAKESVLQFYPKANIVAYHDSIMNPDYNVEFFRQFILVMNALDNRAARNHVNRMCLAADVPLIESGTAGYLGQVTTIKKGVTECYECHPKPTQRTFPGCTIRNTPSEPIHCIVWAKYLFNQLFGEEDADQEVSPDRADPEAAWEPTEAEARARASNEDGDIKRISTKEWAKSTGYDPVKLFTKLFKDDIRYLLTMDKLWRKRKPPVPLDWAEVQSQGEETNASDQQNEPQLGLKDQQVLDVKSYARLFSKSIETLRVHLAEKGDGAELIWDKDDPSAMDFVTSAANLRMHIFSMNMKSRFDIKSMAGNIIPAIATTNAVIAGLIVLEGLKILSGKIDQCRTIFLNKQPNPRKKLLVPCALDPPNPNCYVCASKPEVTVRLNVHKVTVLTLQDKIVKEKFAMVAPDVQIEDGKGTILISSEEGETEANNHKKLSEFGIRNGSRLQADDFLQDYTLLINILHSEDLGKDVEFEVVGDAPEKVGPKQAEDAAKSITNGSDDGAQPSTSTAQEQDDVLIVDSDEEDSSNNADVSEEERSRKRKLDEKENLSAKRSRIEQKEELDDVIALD
T1 sequence (Q9UBE0 1-346 partner): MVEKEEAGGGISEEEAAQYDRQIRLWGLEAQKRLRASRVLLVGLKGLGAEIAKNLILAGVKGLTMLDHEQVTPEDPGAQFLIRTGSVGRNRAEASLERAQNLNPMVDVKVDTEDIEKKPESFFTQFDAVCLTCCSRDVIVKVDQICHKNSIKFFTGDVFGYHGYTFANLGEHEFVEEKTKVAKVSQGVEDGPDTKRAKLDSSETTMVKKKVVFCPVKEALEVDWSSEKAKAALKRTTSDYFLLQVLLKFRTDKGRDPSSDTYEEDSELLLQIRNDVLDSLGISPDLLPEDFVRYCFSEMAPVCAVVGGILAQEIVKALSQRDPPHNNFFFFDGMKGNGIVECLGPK
The test is described as follows: SUMO activity (Table I, biological activities). It is filed as biochemical. Set-up: key: + (less active); ++ (active); +++ (most active).

Consider `CCOC(=O)C1=C(C(=O)NCCN2CCCC2)C2C=CC1(C(Cc1ccccc1)Nc1ccccc1)O2` (centres unmarked) [Compound 564], for which, in the test with c-Myc, the c-Myc entry is given as “+”. Further, the SUMO result on SUMO was “++”.
In the same order, the values of `COC(=O)C1=C(C(=O)Nc2ccccc2)C2C=CC1(C(Cc1ccccc1)Nc1cccc(CO)c1)O2` (centres unmarked) [Compound 528] are “++” and “++”.
`COC(=O)C1=C(C(=O)Nc2ccccc2)C2C=CC1(C(Cc1ccccc1)Nc1ccccc1)O2` (centres unmarked) [Compound 300]: the c-Myc result in the test on c-Myc is on record as “+”. At SUMO, the SUMO result is listed as “+++”.
Taken in the same sequence, the figures for `CCOC(=O)C1=C(C(=O)Nc2ccccc2C)C2C=CC1(C(Nc1ccccc1)c1ccc(CN3CCOCC3)cc1)O2` (centres unmarked) [Compound 591] were “++” and “++”.
With `COC(=O)C1=C(C(=O)NCCN(C)C(=O)OC(C)(C)C)C2C=CC1(C(Cc1ccccc1)Nc1ccccc1)O2` (centres unmarked) [Compound 419], the c-Myc entry in the test on c-Myc is recorded as “+”. The SUMO entry on SUMO is given as “++”.
Taken in the same sequence, the figures for `COC(=O)C1=C(C(=O)NC(C)(C)C)C2C=CC1(C(Cc1ccccc1)Nc1ccccc1)O2` (centres unmarked) [Compound 161] were “+” and “+”.
In the same order, the values of `CCOC(=O)C1=C(C(=O)Nc2ccc(C)nc2)C2C=CC1(C(Nc1ccccc1)c1ccc(CN3CCOCC3)cc1)O2` (centres unmarked) [Compound 573] are “+” and “+”.
In the same order, the values of `COC(=O)C1=C(C(N)=O)C2C=CC1(C(Cc1ccccc1)Nc1ccccc1)O2` (centres unmarked) [Compound 274] are “++” and “+++”.
Turning to `C=CCCC(Nc1ccccc1)C12C=CC(O1)C(C(=O)OC)=C2C(=O)OC` (centres unmarked) [Compound 181], the c-Myc entry in the test with c-Myc is “+”. Further, the SUMO result at SUMO is on record as “++”.
In the same order, the values of `COC(=O)C1=C(C(=O)NC2CCN(C(C)C)CC2)C2C=CC1(C(Cc1ccccc1)Oc1ccccc1)O2` (centres unmarked) [Compound 324] are “++” and “++”.
Taken in the same sequence, the figures for `CCOC(=O)C1=C(C(=O)Nc2c(C)cccc2CC)C2C=CC1(C(Nc1ccccc1)c1ccc(CN3CCOCC3)cc1)O2` (centres unmarked) [Compound 617] were “++” and “++”.
Take `COC(=O)C1=C(C(=O)NCCN2CCCC2)C2C=CC1(C(Cc1ccc(C)cc1)Nc1cc(F)cc(F)c1)O2` (centres unmarked) [Compound 442]: in the test with c-Myc, the c-Myc entry is “++”. Moreover, on SUMO, the SUMO entry is “+++”.
Taken in the same sequence, the figures for `CCOC(=O)C1=C(C(=O)NC2CCN(C)CC2)C2C=CC1(C(Cc1ccccc1)Nc1ccc(F)cc1F)O2` (centres unmarked) [Compound 329] were “++” and “+++”.
Regarding `COC(=O)C1=C(C(=O)OC)C2(C(Cc3ccccc3)Nc3c(F)cccc3F)C=CC1O2` (centres unmarked) [Compound 169], the c-Myc result in the test on c-Myc is “+”. Also, the SUMO entry at SUMO is “++”.
In the same order, the values of `COC(=O)C1=C(C(=O)Nc2ccc(OC)cc2)C2C=CC1(C(Cc1ccccc1)Nc1cc(F)cc(F)c1)O2` (centres unmarked) [Compound 204] are “+” and “+++”.
In the same order, the values of `CCOC(=O)C1=C(C(=O)Nc2ccc(C)c(F)c2)C2(C)C=CC1(C(Nc1ccccc1)c1ccc(CN3CCOCC3)cc1)O2` (centres unmarked) [Compound 579] are “+” and “+”.
In the same order, the values of `CCOc1cccc(NC(Cc2ccccc2)C23C=CC(O2)C(C(=O)NCCN2CCOCC2)=C3C(=O)OC)c1` (centres unmarked) [Compound 252] are “++” and “+++”.
`COC(=O)C1=C(C(=O)NCCN(C)C)C2C=CC1(C(Cc1ccc(F)cc1)Nc1cc(F)cc(Cl)c1)O2` (centres unmarked) [Compound 452]: in the test on c-Myc, the c-Myc entry is “+”. The SUMO result at SUMO is recorded as “++”.
Taken in the same sequence, the figures for `CCOC(=O)C1=C(C(F)(F)F)C2C=CC1(C1OCCO1)O2` (centres unmarked) [Compound 519] were “+” and “++”.
Turning to `COC(=O)C1=C(C(=O)NC2CCN(C)CC2)C2C=CC1(C(Cc1ccccc1)Nc1c(F)cccc1F)O2` (centres unmarked) [Compound 258], in the test on c-Myc, the c-Myc entry is on record as “+”. The SUMO entry at SUMO is “++”.
In the same order, the values of `COCCN1CCC(NC(=O)C2=C(C(=O)OC)C3(C(Cc4ccccc4)Nc4ccccc4)CCC2O3)CC1` (centres unmarked) [Compound 367] are “+” and “+”.
With `COC(=O)C1=C(C(=O)Nc2ccccc2C)C2C=CC1(C(Cc1ccccc1)Nc1ccccc1)O2` (centres unmarked) [Compound 360], the c-Myc result in the test with c-Myc was “+”. On SUMO, the SUMO entry is recorded as “++”.
Take `COC(=O)C1=C(C(=O)NC2CCN(C)CC2)C2C=CC1(C(Cc1ccccc1)Nc1cc(F)cc(Cl)c1)O2` (centres unmarked) [Compound 219]: the c-Myc entry with c-Myc is “++”. Further, the SUMO result at SUMO was “++”.
Regarding `COC(=O)C1=C(C(=O)NCCNS(=O)(=O)c2ccccc2)C2C=CC1(C(Cc1ccccc1)Nc1ccccc1)O2` (centres unmarked) [Compound 394], the c-Myc result in the test on c-Myc is recorded as “+”. Besides, the SUMO result at SUMO is given as “++”.
In the same order, the values of `COC(=O)C1=C(C(=O)Nc2c(C)cccc2C)C2C=CC1(C(Cc1ccccc1)Nc1ccccc1)O2` (centres unmarked) [Compound 354] are “+” and “+”.
`CCN(CC)CCNC(=O)C1=C(C(=O)OC)C2(C(Cc3ccc(Cl)cc3)Nc3cc(F)cc(F)c3)C=CC1O2` (centres unmarked) [Compound 427]: in the test on c-Myc, the c-Myc entry was “++”. At SUMO, the SUMO entry is “++”.
On to `C=CCC(Nc1ccccc1)C12C=CC(O1)C(C(=O)NCCN(C)C)=C2C(=O)OC` (centres unmarked) [Compound 415], for which the c-Myc entry in the test on c-Myc is on record as “+”. The SUMO result at SUMO is “++”.
In the same order, the values of `COC(=O)C1=C(C(=O)OC)C2(C(Cc3ccccc3)N(C(=O)C(F)(F)F)c3ccccc3)C=CC1O2` (centres unmarked) [Compound 554] are “++” and “++”.
In the same order, the values of `CCOc1cccc(NC(Cc2ccccc2)C23C=CC(O2)C(C(=O)NCCN(C)C)=C3C(=O)OC)c1` (centres unmarked) [Compound 251] are “+” and “+++”.
In the same order, the values of `CCOC(=O)C1=C(C(=O)Nc2ccccc2OC)C2C=CC1(C(Nc1ccccc1)c1ccc(CN3CCOCC3)cc1)O2` (centres unmarked) [Compound 597] are “++” and “+”.
`COCCN1CCC(NC(=O)C2=C(C(=O)OC)C3(C(Cc4ccccc4)Nc4ccccc4)C=CC2O3)CC1` (centres unmarked) [Compound 278]: the c-Myc entry in the test on c-Myc is on record as “++”. In addition, the SUMO entry at SUMO is listed as “+++”.
Taken in the same sequence, the figures for `CCOC(=O)C1=C(C(=O)Nc2ccc(OC(F)(F)F)cc2)C2C=CC1(C(Nc1ccccc1)c1ccc(CN3CCOCC3)cc1)O2` (centres unmarked) [Compound 599] were “++” and “++”.
Taken in the same sequence, the figures for `C=CCCC(Nc1ccccc1)C12C=CC(O1)C(C(N)=O)=C2C(=O)OC` (centres unmarked) [Compound 177] were “+” and “+”.
In the same order, the values of `COC(=O)C1=C(C(N)=O)C2C=CC1(C(Cc1ccccc1)Nc1ccccc1)O2` (centres unmarked) [Compound 151] are “+” and “++”.
Turning to `COC(=O)C1=C(C(=O)NC2CCN(C(=O)c3ccc(Cl)cc3)CC2)C2C=CC1(C(Cc1ccccc1)Nc1ccccc1)O2` (centres unmarked) [Compound 380], the c-Myc entry in the test on c-Myc is reported as “+”. The SUMO entry on SUMO is “++”.
In the same order, the values of `COC(=O)C1=C(C(=O)OC)C2(C(CCc3ccccc3)Nc3ccccc3)C=CC1O2` (centres unmarked) [Compound 191] are “+” and “++”.
As for `COC(=O)C1=C(C(=O)NNc2cc(C(F)(F)F)cc(C(F)(F)F)c2)C2C=CC1(C(Cc1ccccc1)Nc1cc(F)cc(F)c1)O2` (centres unmarked) [Compound 317], the c-Myc result in the test with c-Myc was “+”. In addition, the SUMO result at SUMO is “+”.
With `COC(=O)C1=C(C(=O)NC2CCN(C)CC2)C2C=CC1(C(Cc1ccccc1)Nc1cccc(Oc3ccccc3)c1)O2` (centres unmarked) [Compound 320], in the test with c-Myc, the c-Myc entry was “++”. Moreover, the SUMO entry on SUMO is given as “+++”.
Taken in the same sequence, the figures for `CCOC(=O)C1=C(C(=O)Nc2ccccc2)C2C=CC1(C(Nc1ccccc1)c1ccc(CN3CCOCC3)cc1)O2` (centres unmarked) [Compound 604] were “+” and “++”.
`COC(=O)C1=C(C(=O)Nc2ccc(CN(C)C)cc2)C2C=CC1(C(Cc1ccccc1)Nc1ccccc1)O2` (centres unmarked) [Compound 506]: the c-Myc result in the test on c-Myc is “+”. Further, at SUMO, the SUMO result was “++”.
In the same order, the values of `COC(=O)C1=C(C(=O)OC)C2(C(Cc3ccccc3)Nc3cc(F)cc(Cl)c3)C=CC1O2` (centres unmarked) [Compound 209] are “+” and “++”.
`CCOC(=O)C1=C(C(=O)Nc2ccc(C)c(F)c2)C2C=CC1(C(Nc1cccc(OC)c1)c1ccc(CN3CCOCC3)cc1)O2` (centres unmarked) [Compound 615]: the c-Myc result in the test on c-Myc was “+”. At SUMO, the SUMO result was “+”.
`COC(=O)C1=C(C(=O)Nc2ccc(OCCN(C)C)c(F)c2)C2C=CC1(C(Cc1ccccc1)Nc1ccccc1)O2` (centres unmarked) [Compound 500]: the c-Myc result in the test on c-Myc is listed as “+”. For the same compound, at SUMO, the SUMO result is given as “++”.
